# Assay results as given in the Kinase Knowledgebase extract (Sharma et al. 2016).
# What was measured:
# EGFR = EGFR (UniProt P00533)
# Sequence of EGFR (P00533 whole entry, looked up): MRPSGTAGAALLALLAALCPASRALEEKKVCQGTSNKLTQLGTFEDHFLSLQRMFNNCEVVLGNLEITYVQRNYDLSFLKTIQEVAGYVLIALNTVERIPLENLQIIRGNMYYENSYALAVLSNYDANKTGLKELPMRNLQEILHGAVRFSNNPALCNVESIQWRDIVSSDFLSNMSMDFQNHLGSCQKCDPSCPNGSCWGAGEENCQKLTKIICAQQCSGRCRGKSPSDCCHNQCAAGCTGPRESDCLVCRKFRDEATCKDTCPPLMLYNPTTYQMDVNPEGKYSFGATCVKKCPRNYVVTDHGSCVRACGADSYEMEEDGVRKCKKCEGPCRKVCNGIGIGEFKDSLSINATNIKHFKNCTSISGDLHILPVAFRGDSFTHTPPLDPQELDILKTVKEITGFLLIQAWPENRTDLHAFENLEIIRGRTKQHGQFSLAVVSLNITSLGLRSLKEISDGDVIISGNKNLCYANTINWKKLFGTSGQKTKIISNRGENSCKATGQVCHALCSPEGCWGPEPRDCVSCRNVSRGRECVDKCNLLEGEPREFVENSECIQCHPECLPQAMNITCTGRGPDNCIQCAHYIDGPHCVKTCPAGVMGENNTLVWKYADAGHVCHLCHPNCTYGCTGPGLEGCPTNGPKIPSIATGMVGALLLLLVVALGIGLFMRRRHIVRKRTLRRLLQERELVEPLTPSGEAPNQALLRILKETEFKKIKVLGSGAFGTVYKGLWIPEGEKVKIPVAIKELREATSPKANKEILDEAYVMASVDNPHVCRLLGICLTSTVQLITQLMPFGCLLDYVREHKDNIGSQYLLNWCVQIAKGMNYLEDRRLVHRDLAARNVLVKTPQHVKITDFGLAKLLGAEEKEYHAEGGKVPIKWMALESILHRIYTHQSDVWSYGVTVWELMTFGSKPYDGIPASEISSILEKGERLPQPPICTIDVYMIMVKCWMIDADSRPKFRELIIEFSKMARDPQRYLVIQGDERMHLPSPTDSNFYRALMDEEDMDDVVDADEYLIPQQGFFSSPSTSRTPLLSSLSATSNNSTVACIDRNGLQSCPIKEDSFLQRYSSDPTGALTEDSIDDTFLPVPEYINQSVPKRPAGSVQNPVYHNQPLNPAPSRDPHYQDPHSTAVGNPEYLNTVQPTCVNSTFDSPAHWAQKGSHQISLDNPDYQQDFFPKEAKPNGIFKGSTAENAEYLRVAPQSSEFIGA
# Sequence of EGFR, P00533 [L861Q] (P00533 whole entry L861Q, looked up): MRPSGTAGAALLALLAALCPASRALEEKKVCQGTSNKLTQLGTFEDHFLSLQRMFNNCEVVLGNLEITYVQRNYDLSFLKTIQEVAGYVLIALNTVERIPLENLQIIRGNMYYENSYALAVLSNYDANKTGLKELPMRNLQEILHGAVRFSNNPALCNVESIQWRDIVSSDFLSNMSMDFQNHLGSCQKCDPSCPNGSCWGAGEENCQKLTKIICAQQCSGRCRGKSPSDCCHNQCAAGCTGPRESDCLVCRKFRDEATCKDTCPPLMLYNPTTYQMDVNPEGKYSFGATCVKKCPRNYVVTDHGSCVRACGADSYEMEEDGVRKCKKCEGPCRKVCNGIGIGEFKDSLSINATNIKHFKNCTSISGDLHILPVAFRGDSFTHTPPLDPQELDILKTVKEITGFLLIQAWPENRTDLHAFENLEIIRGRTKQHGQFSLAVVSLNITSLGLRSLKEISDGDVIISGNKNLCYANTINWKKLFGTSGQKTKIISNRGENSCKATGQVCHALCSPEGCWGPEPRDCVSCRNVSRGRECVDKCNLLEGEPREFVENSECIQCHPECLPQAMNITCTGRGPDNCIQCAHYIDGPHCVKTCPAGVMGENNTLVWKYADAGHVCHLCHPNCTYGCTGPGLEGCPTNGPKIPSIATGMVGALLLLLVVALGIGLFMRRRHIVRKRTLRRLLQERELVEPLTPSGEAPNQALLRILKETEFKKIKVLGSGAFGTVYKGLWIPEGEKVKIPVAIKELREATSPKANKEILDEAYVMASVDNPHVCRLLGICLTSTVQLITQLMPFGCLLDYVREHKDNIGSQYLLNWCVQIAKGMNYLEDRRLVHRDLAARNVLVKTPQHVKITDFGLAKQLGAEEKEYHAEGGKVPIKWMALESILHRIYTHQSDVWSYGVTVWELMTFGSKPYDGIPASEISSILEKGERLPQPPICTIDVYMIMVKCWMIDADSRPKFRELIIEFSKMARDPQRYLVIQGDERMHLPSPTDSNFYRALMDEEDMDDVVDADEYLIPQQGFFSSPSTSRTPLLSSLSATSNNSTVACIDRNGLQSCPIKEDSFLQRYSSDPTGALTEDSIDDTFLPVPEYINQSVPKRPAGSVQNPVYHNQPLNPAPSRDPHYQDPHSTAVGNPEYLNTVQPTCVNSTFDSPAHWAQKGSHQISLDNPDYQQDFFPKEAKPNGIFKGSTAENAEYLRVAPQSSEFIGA
# Sequence of EGFR, P00533 [L858R] (P00533 whole entry L858R, looked up): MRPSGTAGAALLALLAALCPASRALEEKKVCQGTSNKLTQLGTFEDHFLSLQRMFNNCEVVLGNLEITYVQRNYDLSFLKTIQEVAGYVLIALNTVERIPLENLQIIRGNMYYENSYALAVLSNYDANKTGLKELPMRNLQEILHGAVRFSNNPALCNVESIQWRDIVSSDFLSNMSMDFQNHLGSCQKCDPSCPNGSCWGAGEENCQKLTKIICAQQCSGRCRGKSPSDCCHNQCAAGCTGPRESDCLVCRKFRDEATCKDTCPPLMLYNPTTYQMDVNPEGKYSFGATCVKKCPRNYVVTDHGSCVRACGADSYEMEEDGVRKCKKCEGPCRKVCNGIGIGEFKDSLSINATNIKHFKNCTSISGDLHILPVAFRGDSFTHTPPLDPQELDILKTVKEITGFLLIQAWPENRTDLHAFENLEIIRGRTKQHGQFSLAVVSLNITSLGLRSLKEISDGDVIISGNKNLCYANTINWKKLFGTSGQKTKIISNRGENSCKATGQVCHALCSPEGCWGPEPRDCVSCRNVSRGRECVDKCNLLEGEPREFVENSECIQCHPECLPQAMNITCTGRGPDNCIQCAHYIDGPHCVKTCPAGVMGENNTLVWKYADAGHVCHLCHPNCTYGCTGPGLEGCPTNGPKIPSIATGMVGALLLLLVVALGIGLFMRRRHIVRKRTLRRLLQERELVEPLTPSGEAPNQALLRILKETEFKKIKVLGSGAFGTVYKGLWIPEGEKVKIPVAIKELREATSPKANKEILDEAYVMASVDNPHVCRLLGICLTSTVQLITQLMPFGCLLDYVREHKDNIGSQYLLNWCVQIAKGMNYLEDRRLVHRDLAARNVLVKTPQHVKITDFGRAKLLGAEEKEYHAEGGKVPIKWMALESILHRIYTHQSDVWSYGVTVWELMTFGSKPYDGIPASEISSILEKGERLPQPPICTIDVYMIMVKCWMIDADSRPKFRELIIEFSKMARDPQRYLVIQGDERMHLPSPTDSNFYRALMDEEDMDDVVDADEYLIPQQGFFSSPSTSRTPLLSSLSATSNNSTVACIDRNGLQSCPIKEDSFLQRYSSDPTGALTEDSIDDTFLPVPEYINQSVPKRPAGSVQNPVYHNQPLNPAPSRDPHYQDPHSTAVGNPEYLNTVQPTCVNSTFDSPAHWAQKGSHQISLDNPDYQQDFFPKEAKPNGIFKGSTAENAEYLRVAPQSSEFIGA
smiles,measurement,setting,value
FC(F)(F)c1cccc(Nc2cc(Nc3cccc(C(F)(F)F)c3)ncn2)c1,IC50,EGFR,32 nM
O=C(Nc1cccc(Nc2cc(NCc3ccc(C(F)(F)F)cc3)ncn2)c1)C1CC1,IC50,EGFR,1760 nM
FC(F)(F)c1cccc(Nc2ccnc(Nc3cccc(C(F)(F)F)c3)c2)c1,IC50,EGFR,> 10000 nM
COc1ccc(Nc2cc(Nc3cccc(C(F)(F)F)c3)ncn2)cc1NC(=O)C1CCCCC1,IC50,EGFR,3600 nM
COc1ccc(OC)c(-c2cc(Nc3cccc(NC(=O)C4CC4)c3)ncn2)c1,IC50,EGFR,> 10000 nM
O=C(Nc1cccc(Nc2nccc(Nc3cccc(C(F)(F)F)c3)n2)c1)C1CC1,IC50,EGFR,> 10000 nM
O=C(Nc1cccc(Nc2cc(Nc3cccc(C(F)(F)F)c3)ncn2)c1)C1CC1,IC50,EGFR,21 nM
same,IC50,"EGFR, P00533 [L858R]",63 nM
same,IC50,"EGFR, P00533 [L861Q]",4 nM
CN(c1cccc(NC(=O)C2CC2)c1)c1cc(Nc2cccc(C(F)(F)F)c2)ncn1,IC50,EGFR,> 10000 nM
CN(c1cccc(C(F)(F)F)c1)c1cc(Nc2cccc(NC(=O)C3CC3)c2)ncn1,IC50,EGFR,19 nM
FC(F)(F)c1cccc(Oc2cc(Oc3cccc(C(F)(F)F)c3)ncn2)c1,IC50,EGFR,> 10000 nM
Cc1ccccc1Nc1cc(Nc2cccc(NC(=O)C3CC3)c2)ncn1,IC50,EGFR,7 nM
O=C(Nc1cccc(Nc2ccnc(Nc3cccc(C(F)(F)F)c3)n2)c1)C1CC1,IC50,EGFR,> 10000 nM
O=C(Nc1cccc(Nc2cc(Nc3ccccc3Cl)ncn2)c1)C1CC1,IC50,EGFR,35 nM
COc1ccc(Nc2cc(Nc3cccc(C(F)(F)F)c3)ncn2)cc1NC(=O)C1CC1,IC50,EGFR,120 nM
COc1ccc(Cl)cc1-c1cc(Nc2cccc(NC(=O)C3CC3)c2)ncn1,IC50,EGFR,> 10000 nM
O=C(Nc1cccc(Nc2cc(Oc3cccc(C(F)(F)F)c3)ncn2)c1)C1CC1,IC50,EGFR,14 nM
